# Laboratory results published in ChEMBL document CHEMBL1201862, “PubChem BioAssay data set” (2004).
# Active and inactive are the calls of the source.
# Assays:
# [1] = molecular target: T1, Probable nicotinate-nucleotide adenylyltransferase (Staphylococcus aureus (strain N315), UniProt P65502); format: functional, Staphylococcus aureus subsp. aureus N315;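 for IC50 Mean: confirmatory dose-response retesting of NadD inhibitor hits first found in an ultra-high-throughput screen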
# [2] = molecular target: T1, Probable nicotinate-nucleotide adenylyltransferase; format: functional, Staphylococcus aureus subsp. aureus N315; details: read-out: IC50_Mean
# Protein Wnt-3a = Protein Wnt-3a (Mus musculus, UniProt P27467); experiment: antagonism of Wnt3a pathway luciferase reporter – Wnt-LIGHT cells, luminescence, selectivity assay for Gli-SUFU antagonist project, dose response (AID 651570); format: functional; details: read-out: IC50_Mean;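 note: Wnt-LIGHT reporter cells stimulated with conditioned medium from Wnt3a-producing cells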
# Interleukin-8 = molecular target: T2, Interleukin-8 (Homo sapiens, UniProt P10145); experiment: Dose Response confirmation of uHTS small molecule hits for cystic fibrosis induced NFkb Inhibitors in a PAF-induced IL8 counterscreen.; format: functional; details: read-out: IC50_Mean
# T2 sequence (P10145 whole entry): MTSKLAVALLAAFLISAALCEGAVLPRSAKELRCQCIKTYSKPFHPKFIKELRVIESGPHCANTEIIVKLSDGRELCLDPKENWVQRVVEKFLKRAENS
# Aminopeptidase N = molecular target: T3, Aminopeptidase N (Plasmodium falciparum FcB1/Columbia, UniProt O96935); experiment: malaria alanyl aminopeptidase activity blockers – biochemical, fluorogenic H-Leu-NHMec substrate, 1536-well (AID 1445); set-up: species or system Plasmodium falciparum 3D7, 3D7
# T3 sequence (O96935 whole entry): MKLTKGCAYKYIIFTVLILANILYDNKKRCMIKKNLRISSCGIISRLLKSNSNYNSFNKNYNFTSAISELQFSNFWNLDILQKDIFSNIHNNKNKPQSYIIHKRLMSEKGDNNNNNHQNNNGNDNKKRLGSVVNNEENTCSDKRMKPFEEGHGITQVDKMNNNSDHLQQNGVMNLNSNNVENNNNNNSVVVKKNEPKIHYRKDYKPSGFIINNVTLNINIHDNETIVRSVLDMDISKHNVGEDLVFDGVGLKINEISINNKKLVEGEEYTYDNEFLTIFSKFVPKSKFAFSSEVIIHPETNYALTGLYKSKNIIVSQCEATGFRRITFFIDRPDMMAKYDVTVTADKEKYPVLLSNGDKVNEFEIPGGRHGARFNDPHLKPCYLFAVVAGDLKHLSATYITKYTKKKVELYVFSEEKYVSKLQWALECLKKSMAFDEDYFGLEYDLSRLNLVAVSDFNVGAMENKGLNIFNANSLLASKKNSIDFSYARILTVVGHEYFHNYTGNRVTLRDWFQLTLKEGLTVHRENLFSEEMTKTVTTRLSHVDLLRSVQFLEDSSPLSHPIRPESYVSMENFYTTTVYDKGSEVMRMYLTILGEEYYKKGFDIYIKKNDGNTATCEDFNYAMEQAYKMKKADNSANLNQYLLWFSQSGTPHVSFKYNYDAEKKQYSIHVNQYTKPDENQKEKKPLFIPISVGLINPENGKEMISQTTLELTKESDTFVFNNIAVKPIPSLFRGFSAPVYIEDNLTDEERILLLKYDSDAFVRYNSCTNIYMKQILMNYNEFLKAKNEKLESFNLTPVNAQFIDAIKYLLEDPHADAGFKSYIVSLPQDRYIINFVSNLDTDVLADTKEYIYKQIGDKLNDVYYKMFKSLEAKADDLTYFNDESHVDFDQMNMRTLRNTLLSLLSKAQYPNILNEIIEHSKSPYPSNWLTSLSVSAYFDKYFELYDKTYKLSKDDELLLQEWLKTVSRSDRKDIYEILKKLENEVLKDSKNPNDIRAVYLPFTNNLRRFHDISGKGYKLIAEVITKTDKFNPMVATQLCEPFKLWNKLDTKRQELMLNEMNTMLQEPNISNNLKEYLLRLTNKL
# Estrogen receptor beta [3] = molecular target: T4, Estrogen receptor beta (Homo sapiens, UniProt Q92731);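 note: recombinant ER-beta bound to coactivator SRC1 peptide in presence of estradiol agonist; inhibitors block coactivator peptide binding and lower the FRET signal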
# Estrogen receptor beta [4] = molecular target: T4, Estrogen receptor beta; experiment: blockers of SRC-3 recruitment to ERβ – biochemical, ELISA, streptavidin-HRP readout, orthogonal assay, confirmation (AID 1060)
# [5] = system: Streptococcus sp. 'group A'; experiment: Streptococcus pyogenes SK(-)GAS viability under kanamycin – luminescence, BacTiterGlo, confirmation, counter-screen for streptokinase expression inhibitor project, dose response (AID 1900); format: functional, organism-based
# [6] = molecular target: Induced myeloid leukemia cell differentiation protein Mcl-1 (Homo sapiens, UniProt Q07820); format: functional
# Streptococcus = experiment: GAS UMAA2166 growth inhibition – luminescence, BacTiterGlo, counter-screen for streptokinase expression inhibitor project, dose response (AID 1915); format: functional, organism-based;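 note: potency for reduction of bacterial viability or growth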
# [7] = Luminescence Cell-Based Dose Retest to Confirm Inhibitors of Cancer Stem Cells. [Related pubchem assays (depositor defined):AID2717, AID2721]; format: functional; details: Homo sapiens
# [8] = molecular target: DNA (cytosine-5)-methyltransferase 1 (Homo sapiens, UniProt P26358); experiment: inhibition of DNA methylation by DNMT1 – biochemical, fluorescent molecular beacon, confirmation (AID 602386); format: functional
# [9] = molecular target: T5, Sentrin-specific protease 8 (Homo sapiens, UniProt Q96LD8); experiment: inhibition of human SENP8 cleavage activity – biochemical, luminescence, SAR follow-up (AID 504501); format: functional
# T5 sequence (Q96LD8 whole entry): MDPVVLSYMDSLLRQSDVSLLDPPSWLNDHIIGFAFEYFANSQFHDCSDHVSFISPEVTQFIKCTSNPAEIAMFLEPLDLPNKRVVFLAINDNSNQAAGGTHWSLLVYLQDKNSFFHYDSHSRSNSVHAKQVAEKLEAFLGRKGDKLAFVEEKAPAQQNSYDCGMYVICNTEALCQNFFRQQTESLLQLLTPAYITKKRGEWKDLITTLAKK
# Caspase-3 = molecular target: T6, Caspase-3 (Homo sapiens, UniProt P42574); experiment: SAR Analysis of small molecule inhibitors of Sentrin-specific proteases (SENPs) using a Caspase-3 Selectivity assay. [Related pubchem assays (depositor defined):AID2540, AID2599, AID434973, AID489001]; format: functional
# T6 sequence (P42574 whole entry): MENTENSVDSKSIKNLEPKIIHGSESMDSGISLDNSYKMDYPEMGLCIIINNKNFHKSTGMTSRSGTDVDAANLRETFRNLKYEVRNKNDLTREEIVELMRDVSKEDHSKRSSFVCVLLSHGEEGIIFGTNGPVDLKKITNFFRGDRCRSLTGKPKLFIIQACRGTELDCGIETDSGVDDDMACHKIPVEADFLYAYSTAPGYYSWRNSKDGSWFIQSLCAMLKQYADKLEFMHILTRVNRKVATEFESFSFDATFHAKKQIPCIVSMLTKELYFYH
# [10] = molecular target: T7, Sentrin-specific protease 6 (Homo sapiens, UniProt Q9GZR1); experiment: SAR Analysis of small molecule inhibitors of Sentrin-specific protease 6 (SENP6) using a Luminescent assay. [Related pubchem assays (depositor defined):AID2582, AID2599]; format: functional
# T7 sequence (Q9GZR1 whole entry): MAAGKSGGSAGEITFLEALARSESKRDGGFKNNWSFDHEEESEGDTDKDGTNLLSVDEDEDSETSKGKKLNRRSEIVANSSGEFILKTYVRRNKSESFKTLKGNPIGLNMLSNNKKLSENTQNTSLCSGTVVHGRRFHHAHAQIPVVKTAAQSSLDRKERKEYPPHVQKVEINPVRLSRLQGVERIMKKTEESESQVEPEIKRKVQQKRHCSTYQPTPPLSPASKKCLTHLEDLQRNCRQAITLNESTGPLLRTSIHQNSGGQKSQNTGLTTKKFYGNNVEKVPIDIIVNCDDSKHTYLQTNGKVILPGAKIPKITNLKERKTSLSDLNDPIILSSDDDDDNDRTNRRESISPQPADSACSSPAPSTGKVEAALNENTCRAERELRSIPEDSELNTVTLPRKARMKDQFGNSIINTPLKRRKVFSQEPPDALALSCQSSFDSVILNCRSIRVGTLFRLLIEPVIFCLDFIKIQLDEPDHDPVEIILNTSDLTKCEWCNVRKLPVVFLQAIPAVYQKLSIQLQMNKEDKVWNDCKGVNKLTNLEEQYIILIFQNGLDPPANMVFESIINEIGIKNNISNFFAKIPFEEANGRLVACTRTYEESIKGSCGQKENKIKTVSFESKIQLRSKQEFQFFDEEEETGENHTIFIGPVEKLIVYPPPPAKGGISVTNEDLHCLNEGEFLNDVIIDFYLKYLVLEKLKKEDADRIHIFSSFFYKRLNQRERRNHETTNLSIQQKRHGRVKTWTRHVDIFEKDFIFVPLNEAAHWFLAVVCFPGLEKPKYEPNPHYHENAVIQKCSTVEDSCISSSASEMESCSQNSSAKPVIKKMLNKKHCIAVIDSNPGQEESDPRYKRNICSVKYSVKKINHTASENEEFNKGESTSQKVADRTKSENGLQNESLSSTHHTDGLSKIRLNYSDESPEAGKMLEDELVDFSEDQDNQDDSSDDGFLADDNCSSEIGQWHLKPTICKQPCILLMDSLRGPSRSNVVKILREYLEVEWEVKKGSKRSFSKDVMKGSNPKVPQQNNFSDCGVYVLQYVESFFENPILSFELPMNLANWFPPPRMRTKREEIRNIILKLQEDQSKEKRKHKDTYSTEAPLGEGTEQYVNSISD
# [11] = molecular target: T8, Sentrin-specific protease 7 (Homo sapiens, UniProt Q9BQF6); experiment: inhibition of human SENP7 cleavage activity – biochemical, luminescence, SAR follow-up (AID 504497); format: functional
# T8 sequence (Q9BQF6 whole entry): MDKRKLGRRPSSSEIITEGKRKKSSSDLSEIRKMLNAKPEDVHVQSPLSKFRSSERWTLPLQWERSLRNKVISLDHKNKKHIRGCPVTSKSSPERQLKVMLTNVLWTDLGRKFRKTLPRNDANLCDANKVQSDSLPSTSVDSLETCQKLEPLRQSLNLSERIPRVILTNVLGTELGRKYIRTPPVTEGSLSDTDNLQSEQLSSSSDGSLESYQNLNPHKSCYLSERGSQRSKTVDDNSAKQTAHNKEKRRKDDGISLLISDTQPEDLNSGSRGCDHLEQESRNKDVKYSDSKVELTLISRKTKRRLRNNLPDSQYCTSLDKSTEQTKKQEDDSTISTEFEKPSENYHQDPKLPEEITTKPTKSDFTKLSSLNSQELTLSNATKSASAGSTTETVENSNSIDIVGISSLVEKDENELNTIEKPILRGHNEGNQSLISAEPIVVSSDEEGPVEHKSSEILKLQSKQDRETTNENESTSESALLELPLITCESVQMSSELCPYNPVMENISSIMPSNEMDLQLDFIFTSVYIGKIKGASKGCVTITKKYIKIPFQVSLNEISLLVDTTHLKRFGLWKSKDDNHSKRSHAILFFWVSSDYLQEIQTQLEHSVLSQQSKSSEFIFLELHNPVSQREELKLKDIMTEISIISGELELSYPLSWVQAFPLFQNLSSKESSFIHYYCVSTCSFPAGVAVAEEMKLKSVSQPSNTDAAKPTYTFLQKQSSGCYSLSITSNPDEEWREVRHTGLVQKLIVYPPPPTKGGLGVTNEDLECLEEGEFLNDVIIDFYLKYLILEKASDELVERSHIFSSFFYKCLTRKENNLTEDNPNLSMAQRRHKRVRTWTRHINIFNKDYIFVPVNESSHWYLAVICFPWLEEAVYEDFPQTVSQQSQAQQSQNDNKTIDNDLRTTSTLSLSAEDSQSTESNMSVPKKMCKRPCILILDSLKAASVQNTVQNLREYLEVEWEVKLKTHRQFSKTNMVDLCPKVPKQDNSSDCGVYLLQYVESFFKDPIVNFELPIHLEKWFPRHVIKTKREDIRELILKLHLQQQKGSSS
# 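Throughout, for AC50: cells exposed to compound for roughly 70 hours or longer before luminescence read.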
# T1 sequence (P65502 whole entry): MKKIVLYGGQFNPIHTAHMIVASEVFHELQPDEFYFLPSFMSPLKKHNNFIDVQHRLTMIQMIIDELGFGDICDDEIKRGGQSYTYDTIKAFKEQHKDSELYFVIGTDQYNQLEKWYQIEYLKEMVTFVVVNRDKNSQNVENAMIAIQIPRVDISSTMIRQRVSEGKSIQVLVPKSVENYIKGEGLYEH
# T4 sequence (Q92731 whole entry): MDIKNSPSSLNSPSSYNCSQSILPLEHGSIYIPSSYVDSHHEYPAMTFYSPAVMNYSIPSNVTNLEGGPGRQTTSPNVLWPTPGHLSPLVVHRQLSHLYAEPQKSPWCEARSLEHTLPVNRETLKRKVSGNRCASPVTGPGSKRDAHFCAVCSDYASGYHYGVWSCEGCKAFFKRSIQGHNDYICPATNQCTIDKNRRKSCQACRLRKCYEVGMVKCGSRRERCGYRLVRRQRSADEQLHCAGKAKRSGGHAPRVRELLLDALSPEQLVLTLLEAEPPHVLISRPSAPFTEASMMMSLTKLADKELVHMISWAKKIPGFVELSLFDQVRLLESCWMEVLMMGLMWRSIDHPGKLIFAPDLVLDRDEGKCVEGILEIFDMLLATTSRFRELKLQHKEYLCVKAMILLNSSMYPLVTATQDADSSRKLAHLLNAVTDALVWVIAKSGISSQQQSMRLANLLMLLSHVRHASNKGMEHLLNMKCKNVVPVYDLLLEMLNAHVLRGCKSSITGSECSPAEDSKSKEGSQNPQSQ
# DNA (cytosine-5)-methyltransferase 1, sequence (P26358 whole entry): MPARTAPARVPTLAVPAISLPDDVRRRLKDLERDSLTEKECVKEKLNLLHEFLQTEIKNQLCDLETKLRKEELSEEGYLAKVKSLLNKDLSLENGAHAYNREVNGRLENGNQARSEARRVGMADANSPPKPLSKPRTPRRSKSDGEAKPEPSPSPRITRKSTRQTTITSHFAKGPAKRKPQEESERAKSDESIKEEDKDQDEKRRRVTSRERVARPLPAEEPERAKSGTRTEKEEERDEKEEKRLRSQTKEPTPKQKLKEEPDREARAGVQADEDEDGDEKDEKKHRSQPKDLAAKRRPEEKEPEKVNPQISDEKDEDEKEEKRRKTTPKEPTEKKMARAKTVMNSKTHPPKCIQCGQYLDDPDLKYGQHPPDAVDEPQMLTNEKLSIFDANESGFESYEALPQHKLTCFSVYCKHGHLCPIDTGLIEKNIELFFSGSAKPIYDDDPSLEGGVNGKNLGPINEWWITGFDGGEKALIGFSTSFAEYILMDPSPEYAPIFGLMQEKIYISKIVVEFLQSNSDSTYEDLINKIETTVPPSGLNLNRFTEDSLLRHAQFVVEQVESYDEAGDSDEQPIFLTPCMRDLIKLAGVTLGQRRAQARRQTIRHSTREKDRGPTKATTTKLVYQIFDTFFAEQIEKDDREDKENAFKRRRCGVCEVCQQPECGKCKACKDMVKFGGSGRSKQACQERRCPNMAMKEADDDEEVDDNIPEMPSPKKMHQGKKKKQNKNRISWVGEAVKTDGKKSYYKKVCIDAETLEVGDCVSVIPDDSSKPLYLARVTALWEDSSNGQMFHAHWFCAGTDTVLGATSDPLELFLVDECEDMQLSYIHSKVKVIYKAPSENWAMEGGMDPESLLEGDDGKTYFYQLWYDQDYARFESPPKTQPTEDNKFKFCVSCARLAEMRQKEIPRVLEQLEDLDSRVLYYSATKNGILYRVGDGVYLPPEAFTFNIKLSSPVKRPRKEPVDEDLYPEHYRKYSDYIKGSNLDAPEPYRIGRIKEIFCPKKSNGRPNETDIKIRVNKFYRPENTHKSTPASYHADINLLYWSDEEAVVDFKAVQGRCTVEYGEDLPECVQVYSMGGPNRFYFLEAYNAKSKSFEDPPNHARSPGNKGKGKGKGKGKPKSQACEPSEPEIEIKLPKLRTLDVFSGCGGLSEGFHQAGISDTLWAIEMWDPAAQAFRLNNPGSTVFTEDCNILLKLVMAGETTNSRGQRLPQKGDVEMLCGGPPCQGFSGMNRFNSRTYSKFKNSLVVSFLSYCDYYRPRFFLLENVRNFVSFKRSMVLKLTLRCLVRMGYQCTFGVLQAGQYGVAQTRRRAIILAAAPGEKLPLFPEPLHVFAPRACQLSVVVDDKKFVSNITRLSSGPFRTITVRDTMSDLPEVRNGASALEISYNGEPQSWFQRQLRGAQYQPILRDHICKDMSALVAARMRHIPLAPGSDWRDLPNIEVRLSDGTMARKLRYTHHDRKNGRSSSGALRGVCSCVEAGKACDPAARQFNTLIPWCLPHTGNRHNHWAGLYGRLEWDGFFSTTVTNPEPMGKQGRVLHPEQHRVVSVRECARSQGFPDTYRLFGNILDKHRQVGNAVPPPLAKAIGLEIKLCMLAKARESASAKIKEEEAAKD
# Protein Wnt-3a, sequence (P27467 whole entry): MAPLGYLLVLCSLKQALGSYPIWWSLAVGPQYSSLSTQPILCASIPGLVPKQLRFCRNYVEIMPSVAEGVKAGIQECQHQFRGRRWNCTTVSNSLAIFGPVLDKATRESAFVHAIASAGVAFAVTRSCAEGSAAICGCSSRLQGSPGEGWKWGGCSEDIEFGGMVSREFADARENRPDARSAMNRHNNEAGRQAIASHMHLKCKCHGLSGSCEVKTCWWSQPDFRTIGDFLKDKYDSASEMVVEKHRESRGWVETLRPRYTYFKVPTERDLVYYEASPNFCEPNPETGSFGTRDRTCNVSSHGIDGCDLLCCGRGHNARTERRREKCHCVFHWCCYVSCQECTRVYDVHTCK
# Induced myeloid leukemia cell differentiation protein Mcl-1, sequence (Q07820 whole entry): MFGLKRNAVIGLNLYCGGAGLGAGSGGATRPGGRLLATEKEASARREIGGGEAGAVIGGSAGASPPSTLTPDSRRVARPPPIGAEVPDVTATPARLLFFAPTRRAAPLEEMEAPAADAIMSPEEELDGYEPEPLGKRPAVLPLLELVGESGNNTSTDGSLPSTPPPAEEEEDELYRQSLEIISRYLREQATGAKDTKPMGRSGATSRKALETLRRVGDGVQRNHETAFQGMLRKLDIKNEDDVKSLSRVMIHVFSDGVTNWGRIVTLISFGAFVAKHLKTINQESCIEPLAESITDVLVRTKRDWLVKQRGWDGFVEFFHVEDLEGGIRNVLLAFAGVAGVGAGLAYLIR
compound,measurement,setting,value
Oc1ccc(Nc2nc(-c3cccs3)cs2)cc1,IC50,[1],14.3 µM (active)
same,IC50,[2],28.3 µM (active)
O=C(Nc1ccccc1)C1=C[C@@H](C2CCCCC2)C[C@@H](OCCCCO)O1,IC50,Protein Wnt-3a,47.7 µM (inactive)
CC1=C(C(=O)OCc2ccc3c(c2)OCO3)C(c2cccc([N+](=O)[O-])c2)NC(=O)N1 (stereo unspecified),IC50,Interleukin-8,> 79 µM (inactive)
Cc1oc2c(cc(NS(=O)(=O)c3ccc4c5c(cccc35)C(=O)N4)c3ccccc32)c1C(=O)OC(C)C,IC50,Aminopeptidase N,36.7 µM (active)
same,IC50,Estrogen receptor beta [3],34.8 µM (not active)
same,IC50,Estrogen receptor beta [4],0.706 µM (not active)
same,IC50,[1],28.6 µM (active)
same,IC50,[2],63.2 µM (active)
COc1ccc(/C=C2/C(=O)N(c3nc4ccccc4s3)N=C2CSc2ccc(Cl)cc2)cc1,EC50,[5],0.647 µM (active)
same,IC50,[6],1.69 µM (active)
same,EC50,Streptococcus,3.65 µM (active)
same,AC50,[7],3.01 µM (active)
same,IC50,[8],2.86 µM (active)
O=C(Nc1nc2ccc(NS(=O)(=O)c3ccc(Cl)s3)cc2s1)c1ccccc1,IC50,[9],3.34 µM (active)
same,IC50,Caspase-3,12 µM (active)
same,IC50,[10],2.95 µM (active)
same,IC50,[11],2.65 µM (active)
CCOc1ccc2nc(NC(=O)c3ccc(NS(=O)(=O)c4cccs4)cc3)sc2c1,IC50,[9],> 99 µM (inactive)
same,IC50,Caspase-3,> 99 µM (inactive)
same,IC50,[10],> 99 µM (inactive)
same,IC50,[11],46.5 µM (active)
CCCCOCCCNC(=O)CNC(=O)c1sc2ccccc2c1Cl,IC50,[9],> 99 µM (inactive)
same,IC50,Caspase-3,> 99 µM (inactive)
same,IC50,[10],> 99 µM (inactive)
same,IC50,[11],> 99 µM (inactive)
